Assays:
[1] = system: splenocytes from athymic mice (theta positive cells); experiment: induction of theta positive cells in splenocytes from athymic (nude) mice in vitro; assay type: cell-based; conditions: for percent of theta positive cells: mean of three experiments, saline control 8
Text: (4) Induction of theta positive cells in nude mice (in vitro).

macrophages = experiment: lymphokine (macrophage mitogenic factor, MMF) induced macrophage proliferation in vitro; assay type: cell-based
Text: (2) Lymphokine (macrophage mitogenic factor, MMF) induced macrophage proliferation (in vitro
2. NPT 16416 is also capable of augmenting the lymphokine (MMF) induced proliferation of macrophages causing a 70% enhancement of macrophage proliferation.

[2] = preliminary toxicity studies in Balb/C mice; assay type: in vivo
Experimental: If it is assumed 50 mg/kg is the minimum lethal dose and it is assumed <0.05 mg/kg is the minimum effective dose, the lowest possible therapeutic ratio for NPT 16416 is 50/0.05 or 1000/1.0. It is believed that the toxicity is far less by the oral route since 500 mg/kg p.o. produced no deaths in Balb/c mice.

[3] = system: antibody production to sheep red blood cells (SRBC); experiment: antigen (SRBC) dependent antibody synthesis in vivo (IgM plaques); design: species or system Balb/C mice; conditions: for #Ig M plaques (x ± S.E.): saline control 21 ± 1.1; for % change from control, Ig M plaques: Table VIII; for % change from control, antibody response to SRBC: Table X, *P ≤ 0.001 where starred
Experimental: (3) Antigen (sheep red blood cell, SRBC) dependent antibody synthesis (in vivo)
There is set forth below the standard procedure which should be modified according to the solubility and other properties of the particular compound tested.
1. A solution containing 500 μg/ml NPT is prepared by adding a preweighed amount of the drup powder to sterile BPS (phosphate buffered saline) and sonicating the solution for 30 minutes.
1. NPT drug solution is made by dissolving 500 μg NPT per mil PBS.
1. A 1.4% suspension of agarose in PBS (7 g in 500 ml) is autoclaved for 15 min.
1. Mice are immunized as follows: sheep blood (sheep #23) is received weekly from Hyland labs. It is asceptically collected in two volumes of Alseviers to one volume of blood.
6. The cell count is determined and the stock solution is diluted to 4×10^7 cells/ml. This final suspension is used for immunization.
7. Each mouse is immunized by i.v. injection into the lateral tail vein (warmed in a 50° C. water bath for veinous dilation) with 0.1 ml SRBC (sheep red blood cell) suspensions; the final concentration of SRBC's is 4×10^6 per mouse.
1. Mice are treated by i.p. injection on days […], 1, 2, and 3. A syringe (1 cc) is fitted with a one-half inch, 26 gauge needle. The needle is introduced at a 45° angle along the right side of the linea alba. A 0.2 ml volume is given to both drug and control treated groups.
2. Drug groups are given 0.2 ml of a desired concentration NPT solution which, for a 20 g mouse, is […].
1. Spleens are removed asceptically and placed individually in Falcon #2025 tissue culture tubes containing 3 ml MEM. The tubes are then stored on ice.
2. Spleens are homogenized in the same tube with a teflon pestle attached to a G. K. Heller variable speed reversible motor connected with a G. K. Heller GT-21 motor controller setting #6.
6. The cell count is obtained and the stock suspension is diluted to 1×10^7 cells/ml. The Coulter counter threshhold is set at 10. Red cells are lysed with three drops of Zap isoton.
1. Thirty-five hundredths gram agarose and 0.53 grams MEM powder are placed into an Erlenmeyer flask. Fifty ml of distilled H2 O is then added to the flask.
1. Five ml sheep blood (same batch as used for immunization) is washed three times in PBS using an IEC Clinical Standard Centrifuge, speed #4 (2800 RPM) for 10 min.
1. Agar plates are removed from refrigerator and allowed to warm to room temperature. They are labeled in triplicate for each experimental group.
2. Agar-filled tubes are removed from the water bath. One-tenth of the 10% SRBC's and 0.1 ml spleen cell suspension are added to each agar tube. The tubes are agitated on a Vortex mixer.
3. The contents of the tubes are poured immediately into agar base plates and swirled until a smooth layer is formed. The plates are placed on a level surface until the agar solidifies.
4. The plates are incubated at 37° C. in a humidified atmosphere of 5% CO2 and 95% air for 90 min.
6. Plates are removed from incubator and 1 ml of the diluted complement is added to each plate.
7. Plates are then incubated another 30-45 minutes at 37° C. Plates are then removed from incubator and counted using oblique light.

[4] = system: lymphocytes from normal volunteers (active E-rosettes); experiment: enhancement of active E-rosettes, lymphocytes from normal volunteers in vitro; assay type: cell-based; conditions: for % E-rosettes (active): control 37
Experimental: The effects of NPT 16416 on stimulating formation of active rosettes when incubated with lymphocytes in vitro from normal volunteers is described in Table XII. It is important to note that 5×10^-8M concentration of NPT 16416 is capable of producing a 36.5% enhancement of Active E-Rosettes. The enhancement of Active E-Rosettes is biologically important because that fraction of lymphocytes (T-cells) which are the active rosettes are found to be deficient in tumor patients and virus infected individuals. Restoration of this deficiency should benefit the patient.

Influenza A/USSR 90 = experiment: inhibition of influenza virus replication (hemadsorption assay); assay type: cell-based; conditions: read-out: % inhibition of viral growth
Experimental: The ability of NPT 16416 to inhibit influenza virus replication was measured using the hemadsorption assay.

[5] = system: Herpes Simplex Virus Type I; experiment: inhibition of Herpes Simplex Virus replication; assay type: cell-based; conditions: read-out: % inhibition of viral growth

Q: Which “percent of theta positive cells” value ([1]; .005-.01 μg/ml) does the source give for `Oc1ncnc2c1nc1n2CCS1` [NPT 16416, 3-hydroxy-7,8-dihydrothiazolo-[3,2e]-purine] here?
A: 14%

Q: And the “percent of theta positive cells” value ([1]; .05-.1 μg/ml)?
A: 18%

Q: What about the “percent of theta positive cells” value ([1]; .5-1.0 μg/ml) of the same molecule?
A: 17%

Q: And the “production of theta positive (T) cells, in words” value ([1]; in vitro)?
A: able to cause the production of T-cells from a T-cell deficient population

Q: What about the “increase of theta positive cells over control values” ([1]; spleen cells from athymic mice, in vitro) of the same molecule?
A: 125%

Q: What about the “enhancement of lymphokine (MMF) induced macrophage proliferation” value (macrophages) of the same molecule?
A: 70%

Q: What about the mortality ([2]; 50 mg/kg i.p., Balb/C mice) of the same molecule?
A: no mortality

Q: What about the deaths ([2]; 500 mg/kg p.o., Balb/c mice) of the same molecule?
A: no deaths

Q: And the “#Ig M plaques (x ± S.E.)” value ([3]; 0.05 mg/kg i.p.)?
A: 39 ± 3.34

Q: What about the “#Ig M plaques (x ± S.E.)” value ([3]; 0.5 mg/kg i.p.) of the same molecule?
A: 35 ± 2.06

Q: What about the “#Ig M plaques (x ± S.E.)” value ([3]; 5.0 mg/kg i.p.) of the same molecule?
A: 9 ± 0.37

Q: What about the “effect on antibody production in vivo, in words” value ([3]; SRBC immunized mice) of the same molecule?
A: enhancement of production of specific antibodies in vivo

Q: What about the “% change from control, Ig M plaques” value ([3]; 0.05 mg/kg i.p.) of the same molecule?
A: +88%

Q: And the “% change from control, Ig M plaques” value ([3]; 0.5 mg/kg i.p.)?
A: +66%

Q: What about the “% change from control, Ig M plaques” value ([3]; 5.0 mg/kg i.p.) of the same molecule?
A: -58%

Q: And the “% change from control, antibody response to SRBC” value ([3]; 0.5 mg/kg)?
A: +66%

Q: What about the “% change from control, antibody response to SRBC” value ([3]; 5.0 mg/kg, NPT 16485 N.S.) of the same molecule?
A: -80%

Q: What about the “enhancement of antibody production to SRBC” value ([3]; mice, 0.05 mg/kg) of the same molecule?
A: 88-226%

Q: What about the “% E-rosettes (active)” value ([4]; 5 × 10^-5 M) of the same molecule?
A: 43%

Q: And the “% E-rosettes (active)” value ([4]; 5 × 10^-7 M)?
A: 55.5%

Q: And the “% E-rosettes (active)” value ([4]; 5 × 10^-8 M)?
A: 62.5%

Q: And the “% E-rosettes (active)” value ([4]; 5 × 10^-9 M)?
A: 58.5%

Q: What about the “% E-rosettes (active)” value ([4]; 5 × 10^-10 M) of the same molecule?
A: 42%

Q: What about the activation at 50 µM ([4]; Homo sapiens, Lymphocyte, 5 × 10^-5 M, read-out: % increase of active E-rosettes) of the same molecule?
A: 10%

Q: And the activation at 0.5 µM ([4]; Homo sapiens, Lymphocyte, 5 × 10^-7 M, read-out: % increase of active E-rosettes)?
A: 23%

Q: What about the activation at 0.05 µM ([4]; Homo sapiens, Lymphocyte, 5 × 10^-8 M, read-out: % increase of active E-rosettes) of the same molecule?
A: 36.5%

Q: And the activation at 0.005 µM ([4]; Homo sapiens, Lymphocyte, 5 × 10^-9 M, read-out: % increase of active E-rosettes)?
A: 34%

Q: And the activation at 0.0005 µM ([4]; Homo sapiens, Lymphocyte, 5 × 10^-10 M, read-out: % increase of active E-rosettes)?
A: 7.6%

Q: What about the inhibition at 0.1 µg/mL (Influenza A/USSR 90; 0.1 μg/ml) of the same molecule?
A: 54%

Q: What about the inhibition at 0.5 µg/mL (Influenza A/USSR 90; 0.5 μg/ml) of the same molecule?
A: 59%

Q: What about the inhibition at 75 µg/mL (Influenza A/USSR 90; 75 μg/ml) of the same molecule?
A: 78%

Q: What about the inhibition at 0.05 µg/mL (Influenza A/USSR 90; NPT 16416 0.05 μg/ml) of the same molecule?
A: 48%

Q: What about the inhibition at 37.5 µg/mL ([5]; 37.5 μg/ml) of the same molecule?
A: 33%

Q: And the inhibition at 75 µg/mL ([5]; 75 μg/ml)?
A: 61%

Q: And the inhibition at 150 µg/mL ([5]; 150 μg/ml)?
A: 65%

From patent US4510144A, “Methods of imparting immunomodulating activity with dihydrothiazolo purine derivatives” (Newport Pharmaceuticals International, priority 1982, dated 1985)
